Data taken from patent US20150275187A1, “FURFURAL-RESISTANT GENE AND FURFURAL-RESISTANT STRAINS COMPRISING THE SAME” (KOREA INSTITUTE OF SCIENCE AND TECHNOLOGY, priority 2014, published 2015).

Key:
[1] = tested on: cg1310 (rolM, Maleylacetate reductase) mRNA; test: Microarray gene expression depending on furfural concentration; format: cell-based, Corynebacterium glutamicum; settings: against wild type in medium not containing furfural
Description: As a result, among the genes, which are expected to have similarity, cg1310 (SEQ ID No.: 2) showing increased expression at microarray is selected as the target gene. And, information about the selected target gene, and expression level of the target gene depending on the furfural concentration in the medium, which is obtained by analyzing gene expression pattern thereof depending on the furfural concentration using microarray, are shown in the following Table 1.
As a result of analysis, compared with the medium not containing the furfural, the mRNA expression level of the target gene is increased in the medium containing the furfural, and the mRNA expression level of the target gene is further increased when the furfural concentration is increased from 6.5 mM to 13 mM.
(§1) DNA Microarray is used as a method for analyzing gene expression depending on the furfural stress.

[2] = tested on: Corynebacterium glutamicum ATCC 13032; test: Growth inhibitory effect of furfural in wild type strain; format: cell-based
Method: In order to develop a furfural-resistant strain, first of all, Corynebacterium glutamicum is selected as a wild type, and then, growth inhibitory effect of furfural at Corynebacterium glutamicum wild type strain (wild type), which is Corynebacterium glutamicum ATCC 13032, depending on concentration, and concentrations of furfural and furfuryl alcohol in a culture solution depending on cell growth are confirmed.
Specifically, as the culture solution, 2% glucose as a carbon source is added to a minimal medium, CGXII medium, and furfural of 6.5 mM, 13 mM and 20 mM are added thereto, respectively, to compare growth speed with the case not adding the furfural. At this time, the composition of the CGXII medium is 20 g/L (NH4)2504, 5 g/L Urea, 1 g/L KH2PO4, 1 g/L K2HPO4, 0.25 g/L MgSO4.7H2O, 42 g/L MOPS, 10 mg/L CaCl2, 0.2 mg/L Biotin, 0.03 g/L Protecatechuic acid, Trace metal (10 mg/L FeSO4.7H2O, 10 mg/L MnSO4.H2O, 1 mg/L ZnSO4.7H2O, 0.2 mg/L CuSO4.7H2O, 0.02 mg/L NiCl2.6H2O). Culture is conducted at 30° C. after inoculating the cells (initial OD600=1) into the culture solution 50 mL in a 250 mL Erlenmeyer flask.

[3] = tested on: cg3399 (Permease of the major facilitator superfamily) mRNA; test: Microarray gene expression depending on furfural concentration; format: cell-based, Corynebacterium glutamicum; settings: against wild type in medium not containing furfural
Description: as §1
(§2) Specifically, among genes corresponding to the module classified at http://www.coryneregnet.de/ of entire genes, and genes, whose corresponding protein names contain at least one of transport, permease and pump, genes showing increased expression level at all furfural concentrations are selected, and then, genes showing about 10 folds or more increased expression level at least one concentration are selected. And, among the selected genes, existing genes, which are known to response to stress, are excluded by literature search, and cg0310 (SEQ ID No.: 3), cg1661 (SEQ ID No.: 1), cg3374 (SEQ ID No.: 4) and cg3399 (SEQ ID No.: 5) are selected as the target gene. These are catalase, efflux pump in the cell membrane, oxidoreductase and permease-type genes. Then, information of the target genes selected by microarray, and expression levels of the target genes depending on the furfural concentration in the medium, which are obtained by analyzing gene expression pattern thereof using microarray, are shown in the following Table 2.
(§3) The gene expression levels of the above Table 2 show the relative mRNA expression levels of the target genes of the wild type strain grown in the medium containing the furfural, against the wild type strain grown without stress in the medium not containing the furfural. As a result of analysis, compared with the medium not containing the furfural, the mRNA expression levels of each target gene are increased in the medium containing the furfural, and the mRNA expression levels of the target genes are further increased as the furfural concentration is increased.

[4] = tested on: cg3374 (cye1, Putative NADH-dependent flavin oxidoreductase) mRNA; test: as above; format: cell-based, Corynebacterium glutamicum; settings: against wild type in medium not containing furfural
Description: as §1, §2, §3

[5] = tested on: cg0310 (katA, catalase) mRNA; test: as above; format: cell-based, Corynebacterium glutamicum; settings: against wild type in medium not containing furfural
Description: as §1, §2, §3

[6] = tested on: cg1661 (Arsenite efflux pump ACR3 or related permease) mRNA; test: as above; format: cell-based, Corynebacterium glutamicum; settings: against wild type in medium not containing furfural
Description: as §1, §2, §3

[7] = Furfural Conc. in Medium: 6.5 mM
[8] = Furfural Conc. in Medium: 13 mM
[9] = Furfural Conc. in Medium: 20 mM

SMILES: O=Cc1ccco1 [furfural]
- Gene Expression Level (relative mRNA) cg1310 [1, 7]: 1.476
- Gene Expression Level (relative mRNA) cg1310 [1, 8]: 2.872
- Gene Expression Level (relative mRNA) cg1310 [1, 9]: 2.183
- growth reduction compared with the medium not containing the furfural ([2]; 6.5 mM furfural, CGXII medium with 2% glucose, 30° C.): ≥ 50%
- growth speed of the strain ([2]; furfural 6.5, 13 and 20 mM in CGXII medium): becomes slow as the furfural concentration in the medium is increased
- Gene Expression Level (relative mRNA) cg3399 [3, 7]: 4.485
- Gene Expression Level (relative mRNA) cg3399 [3, 8]: 6.529
- Gene Expression Level (relative mRNA) cg3399 [3, 9]: 15.694
- Gene Expression Level (relative mRNA) cg3374 [4, 7]: 1.461
- Gene Expression Level (relative mRNA) cg3374 [4, 8]: 3.219
- Gene Expression Level (relative mRNA) cg3374 [4, 9]: 29.016
- Gene Expression Level (relative mRNA) cg0310 [5, 7]: 3.219
- Gene Expression Level (relative mRNA) cg0310 [5, 8]: 3.443
- Gene Expression Level (relative mRNA) cg0310 [5, 9]: 10.956
- Gene Expression Level (relative mRNA) cg1661 [6, 7]: 7.240
- Gene Expression Level (relative mRNA) cg1661 [6, 8]: 3.071
- Gene Expression Level (relative mRNA) cg1661 [6, 9]: 13.186
